The values below come from BindingDB's records for patent WO2022076764 (BRISTOL-MYERS SQUIBB COMPANY, 2022).

One experiment concerns the target T1, fMet-Leu-Phe receptor (Homo sapiens, UniProt P21462).
T1 sequence (P21462 whole entry): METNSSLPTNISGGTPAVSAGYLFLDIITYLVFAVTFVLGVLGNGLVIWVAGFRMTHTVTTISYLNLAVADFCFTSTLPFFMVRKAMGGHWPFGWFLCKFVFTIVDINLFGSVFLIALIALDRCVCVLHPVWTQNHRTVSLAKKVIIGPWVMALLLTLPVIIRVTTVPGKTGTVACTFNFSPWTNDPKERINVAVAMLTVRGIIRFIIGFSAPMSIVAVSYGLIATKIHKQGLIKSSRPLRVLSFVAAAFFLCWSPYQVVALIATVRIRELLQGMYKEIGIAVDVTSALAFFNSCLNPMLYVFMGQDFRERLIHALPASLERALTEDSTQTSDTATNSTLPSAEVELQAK

In experiment [1] the target is T2, N-formyl peptide receptor 2 (Homo sapiens, UniProt P25090).
T2 sequence (P25090 whole entry): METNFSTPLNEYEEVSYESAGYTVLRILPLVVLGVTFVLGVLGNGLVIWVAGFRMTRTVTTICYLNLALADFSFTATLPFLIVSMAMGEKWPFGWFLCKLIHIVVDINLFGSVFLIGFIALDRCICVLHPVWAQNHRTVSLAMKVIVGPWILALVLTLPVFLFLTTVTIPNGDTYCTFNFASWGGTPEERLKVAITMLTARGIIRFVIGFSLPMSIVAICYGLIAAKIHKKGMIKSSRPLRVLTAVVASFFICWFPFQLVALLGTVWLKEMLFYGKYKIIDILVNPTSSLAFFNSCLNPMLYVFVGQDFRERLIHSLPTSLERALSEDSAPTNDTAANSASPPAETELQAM

As to `COc1ccc(-n2cc(C3CCCNC3)nc2NC(=O)c2ccc(OC(F)F)cc2)cc1` (configuration not stated) [WO2022076764, Example 64], the results for the EC50 (on fMet-Leu-Phe receptor; in experiment [1]) were 0.011 µM and 0.21 µM, respectively.
Take `CCS(=O)(=O)N1CCC(c2cn(-c3c(F)cc(OC)cc3F)c(NC(=O)c3ccc(OC(F)F)cc3)n2)CC1` [WO2022076764, Example 65]: the EC50 amounted to 0.081 µM at fMet-Leu-Phe receptor and 0.32 µM in experiment [1].
Take `CCNC(=O)N1CCC(c2cn(-c3c(F)cc(OC)cc3F)c(NC(=O)c3ccc(OC(F)F)cc3)n2)CC1` [WO2022076764, Example 66]: the values for the EC50 (on fMet-Leu-Phe receptor; in experiment [1]) were 0.028 µM and 0.54 µM, respectively.
As for `COc1cc(F)c(-n2cc(C3CCN(C(=O)CCC(N)=O)CC3)nc2NC(=O)c2ccc(OC(F)F)cc2)c(F)c1` [WO2022076764, Example 67], the EC50 at fMet-Leu-Phe receptor came out at 0.054 µM; in experiment [1], 0.083 µM.
Turning to `COc1cc(F)c(-n2cc(C3CCN(C(=O)CCO)CC3)nc2NC(=O)c2ccc(OC(F)F)cc2)c(F)c1` [WO2022076764, Example 68], the EC50 came to 0.045 µM at fMet-Leu-Phe receptor and 0.11 µM in experiment [1].
Take `COc1cc(F)c(-n2cc(C(=O)N3CCC(CO)CC3)nc2NC(=O)c2ccc(OC(F)F)cc2)c(F)c1` [WO2022076764, Example 69]: the EC50 on fMet-Leu-Phe receptor amounted to 0.086 µM; in experiment [1], 2.99 µM.
For `COc1cc(F)c(-n2cc(C(C)C)nc2NC(=O)c2ccc(OC(F)F)cc2)c(F)c1` [WO2022076764, Example 70] the same measures were 0.031 µM and 0.97 µM.
For `COc1cc(F)c(-n2cc(Cc3ccccc3)nc2NC(=O)c2ccc(OC(F)F)cc2)c(F)c1` [WO2022076764, Example 71], the EC50 at fMet-Leu-Phe receptor turned out to be 0.046 µM; in experiment [1], 1.3 µM.
`CCOC(=O)Cc1cn(-c2c(F)cc(OC)cc2F)c(NC(=O)c2ccc(OC(F)F)cc2)n1` [WO2022076764, Example 72]: the EC50 on fMet-Leu-Phe receptor amounted to 0.022 µM; in experiment [1], 0.47 µM.
Regarding `COc1cc(F)c(-n2cc(Cc3nnc(C)o3)nc2NC(=O)c2ccc(OC(F)F)cc2)c(F)c1` [WO2022076764, Example 73], the EC50 on fMet-Leu-Phe receptor is 0.023 µM; in experiment [1] it was 0.3 µM.
As for `COc1cc(F)c(-n2cc(C3CCC(O)CC3)nc2NC(=O)c2ccc(OC(F)F)cc2)c(F)c1` (configuration not stated) [WO2022076764, Example 76], the EC50 on fMet-Leu-Phe receptor stood at 0.01 µM; in experiment [1], 0.24 µM.
`COc1cc(F)c(-n2cc(Cc3ccccn3)nc2NC(=O)c2ccc(OC(F)F)cc2)c(F)c1` [WO2022076764, Example 78]: the values for the EC50 (at fMet-Leu-Phe receptor; in experiment [1]) were 0.056 µM and 0.87 µM, respectively.
The matching figures for `COc1cc(F)c(-n2cc(C3CNC3)nc2NC(=O)c2ccc(OC(F)F)cc2)c(F)c1` [WO2022076764, Example 79]: 0.081 µM and 4.2 µM.
Consider `COc1cc(F)c(-n2cc(-c3ccn[nH]3)nc2NC(=O)c2ccc(OC(F)F)cc2)c(F)c1` [WO2022076764, Example 80], for which the EC50 on fMet-Leu-Phe receptor was found to be 0.059 µM; in experiment [1] it was 0.5 µM.
For the molecule `COc1cc(F)c(-n2cc(C3CC(N)C3)nc2NC(=O)c2ccc(OC(F)F)cc2)c(F)c1` (configuration not stated) [WO2022076764, Example 81], the EC50 on fMet-Leu-Phe receptor is 0.004 µM; in experiment [1] it was 5.4 µM.
Regarding `COc1cc(F)c(-n2cc(C3CC(NS(C)(=O)=O)C3)nc2NC(=O)c2ccc(OC(F)F)cc2)c(F)c1` (configuration not stated) [WO2022076764, Example 83], the results for the EC50 (on fMet-Leu-Phe receptor; in experiment [1]) were 0.005 µM and 0.4 µM, respectively.

What is called EC50 is the midpoint of the concentration-response curve.
